Assay results published in patent US8163756B2 (priority 2004, dated 2012).
Structures can show the parent of a compound that is named as a salt. Where two headings read alike, the source gives them in different places.

Legend:
Type in all cases: biochemical
Abl kinase [1] = target: T1, Abl kinase (Homo sapiens, UniProt P00519); test: Abl kinase assay A2 (as A1, 1.1 nM enzyme, 2 h pre-incubation, 0.5 mM ATP)
T1 sequence (P00519 229-512): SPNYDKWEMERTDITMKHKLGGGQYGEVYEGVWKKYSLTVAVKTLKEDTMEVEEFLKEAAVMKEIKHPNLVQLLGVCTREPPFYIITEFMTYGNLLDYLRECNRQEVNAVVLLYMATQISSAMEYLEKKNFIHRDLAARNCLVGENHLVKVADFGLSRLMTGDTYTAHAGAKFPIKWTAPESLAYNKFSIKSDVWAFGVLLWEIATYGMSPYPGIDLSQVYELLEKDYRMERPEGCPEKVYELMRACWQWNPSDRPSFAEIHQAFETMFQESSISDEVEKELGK
Procedure: (§1) IC50 values were calculated from a series of percent inhibition values determined at a range of inhibitor concentrations using software routines as implemented in the GraphPad Prism software package.

B-Raf(V599E) kinase = B-Raf(V599E) kinase (Homo sapiens, UniProt P15056, V600E); test: B-Raf(V599E) kinase assay B2 (construct 2 at 2 nM, 1 h pre-incubation)
Procedure: The test compounds were incubated with the reaction mixtureat 30° C. for 2 h. […] The reaction rate was calculated using the […] time frame. […] IC50 values were calculated from a series of percent inhibition values determined at a range of inhibitor concentrations using software routines as implemented in the GraphPad Prism software package.
Same as assay B1 except that (1) construct 2 was employed at a nominal concentration of 2 nM (2) the reaction was pre-incubated at 30° C. for 1 h prior to initiation with ATP (3) a reading time frame of 0.5 h to 1.5 h.

Abl kinase [2] = target: T1, Abl kinase; test: Abl kinase assay A1 (pyruvate kinase/lactate dehydrogenase coupled, spectrophotometric); details: Method A1; read-out: Abl Data (IC50)
Procedure: as §1

KDR kinase = KDR kinase (Homo sapiens, UniProt P35968, DEL940-989/E990V); test: KDR kinase assay K2 (as K1, 2.1 nM enzyme, 2 h pre-incubation, 1.0 mM ATP); details: Method K2; read-out: KDR Data (IC50)
Procedure: as §1

[3] = target: phosphorylated p-38-alpha kinase (Homo sapiens, UniProt Q16539); test: P-38 alpha kinase assay P1 (coupled spectrophotometric, 2 h pre-incubation)
[4] = Method A2, read-out: Abl Data (IC50)
[5] = method P1 (2 h pre-incubation), read-out: P-38 Data

phosphorylated p-38-alpha kinase, sequence (Q16539 1-360 isoform Q16539-2): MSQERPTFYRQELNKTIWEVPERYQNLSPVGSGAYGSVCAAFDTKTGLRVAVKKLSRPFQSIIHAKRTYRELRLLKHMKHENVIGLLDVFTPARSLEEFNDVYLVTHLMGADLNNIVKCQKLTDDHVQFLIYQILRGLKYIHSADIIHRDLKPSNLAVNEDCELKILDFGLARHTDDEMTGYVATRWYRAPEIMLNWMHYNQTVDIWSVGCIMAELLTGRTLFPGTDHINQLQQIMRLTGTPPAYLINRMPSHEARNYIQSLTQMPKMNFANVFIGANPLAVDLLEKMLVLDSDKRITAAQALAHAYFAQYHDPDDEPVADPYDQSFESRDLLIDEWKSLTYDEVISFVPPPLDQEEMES
KDR kinase, sequence (P35968 with tags, fused parts or gaps DEL940-989/E990V): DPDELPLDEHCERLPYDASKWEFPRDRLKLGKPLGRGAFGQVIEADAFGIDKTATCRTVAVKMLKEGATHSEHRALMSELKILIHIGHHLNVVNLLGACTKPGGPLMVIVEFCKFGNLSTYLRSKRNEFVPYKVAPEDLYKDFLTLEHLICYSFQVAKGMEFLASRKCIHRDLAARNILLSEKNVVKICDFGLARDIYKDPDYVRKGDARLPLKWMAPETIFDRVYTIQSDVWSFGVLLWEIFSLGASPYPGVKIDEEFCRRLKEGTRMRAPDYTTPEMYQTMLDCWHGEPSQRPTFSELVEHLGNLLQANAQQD
B-Raf(V599E) kinase, sequence (P15056 433-726 V600E): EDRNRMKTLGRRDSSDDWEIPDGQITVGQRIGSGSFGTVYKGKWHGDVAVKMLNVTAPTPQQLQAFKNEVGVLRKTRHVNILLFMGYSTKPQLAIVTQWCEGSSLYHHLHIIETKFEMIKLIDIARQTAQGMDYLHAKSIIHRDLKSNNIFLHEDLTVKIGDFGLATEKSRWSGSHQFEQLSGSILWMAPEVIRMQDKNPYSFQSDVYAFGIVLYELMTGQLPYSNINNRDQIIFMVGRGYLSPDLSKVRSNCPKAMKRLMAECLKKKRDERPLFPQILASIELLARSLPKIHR

Compound	IC50 (Abl kinase [1]; [4]) [µM]	IC50 (B-Raf(V599E) kinase) [µM]	IC50 (Abl kinase [2]) [µM]	IC50 (KDR kinase) [µM]	IC50 (Abl kinase [1]) [µM]	IC50 [3] [µM]	IC50 [3, 5] [µM]
CC(C)(C)c1cc(NC(=O)Nc2ccc(-c3cccc4c3CNC4=O)cc2)n(-c2cccc(-c3cn[nH]c3)c2)n1 [Example 51, 1-(1-(3-(1H-pyrazol-4-yl)phenyl)-3-t-butyl-1H-pyrazol-5-yl)-3-(4-(1-oxoisoindolin-4-yl)phenyl)urea]	0.052	0.029	–	–	–	–	–
CC(C)(C)c1cc(NC(=O)Nc2ccc(Cl)cc2)n(-c2cc(CNC(=O)NS(C)(=O)=O)c3ccccc3c2)n1 [Example 74, 1-{3-t-butyl-1-[1-(methanesulfonylureidoamidomethyl)naphthalen-3-yl]-1H-pyrazol-5-yl}-3-(4-chlorophenyl-1-yl)urea]	–	0.934	2.1	2.5	–	–	–
CC(C)(C)c1cc(NC(=O)Nc2cccc(Oc3cccnc3)c2)n(-c2cc(CC(N)=O)c3ccccc3c2)n1 [Example 86, 1-(1-(4-(2-amino-2-oxoethyl)naphthalen-2-yl)-3-t-butyl-1H-pyrazol-5-yl)-3-(3-(pyridin-3-yloxy)phenyl)urea hydrochloride]	–	0.179	–	–	0.001	0.024	–
CC(C)(C)c1cc(NC(=O)Nc2cccc(Cl)c2Cl)n(-c2ccc3[nH]ccc3c2)n1 [Example 115, 1-(3-t-butyl-1-(1H-indol-5-yl)-1H-pyrazol-5-yl)-3-(2,3-dichlorophenyl)urea]	–	0.979	0.17	0.81	–	–	0.49
Cn1c(=O)c(-c2cccc(NC(=O)Nc3cc(C(C)(C)C)nn3-c3ccc4[nH]ccc4c3)c2)cc2cncnc21 [Example 118, 1-(3-t-butyl-1-(1H-indol-5-yl)-1H-pyrazol-5-yl)-3-(3-(8-methyl-7-oxo-7,8-dihydropyrido[2,3-d]pyrimidin-6-yl)phenyl)urea]	0.011	0.023	–	–	–	–	–
CC(C)(C)c1cc(NC(=O)Nc2cccc(Cl)c2Cl)n(-c2ccc3cn[nH]c3c2)n1 [Example 120, 1-(3-t-butyl-1-(1H-indazol-6-yl)-1H-pyrazol-5-yl)-3-(2,3-dichlorophenyl)urea]	5.1	0.214	–	–	–	–	–
CC(C)(C)c1cc(NC(=O)Nc2cccc(Cl)c2Cl)n(-c2ccc3[nH]ncc3c2)n1 [Example 121, 1-(3-t-butyl-1-(1H-indazol-5-yl)-1H-pyrazol-5-yl)-3-(2,3-dichlorophenyl)urea]	1	0.105	–	–	–	–	0.04
Cn1c(=O)c(-c2cccc(NC(=O)Nc3cc(C4CCCC4)nn3-c3ccc4c(c3)CCC(=O)N4)c2)cc2cncnc21 [Example 134, 1-(3-cyclopentyl-1-(2-oxo-1,2,3,4-tetrahydroquinolin-6-yl)-1H-pyrazol-5-yl)-3-(3-(8-methyl-7-oxo-7,8-dihydropyrido[2,3-d]pyrimidin-6-yl)phenyl)urea]	0.052	0.041	–	–	–	–	–
CNC(=O)c1cc(Oc2cccc(NC(=O)Nc3cc(C(C)(C)C)nn3-c3ccc4[nH]c(=O)ccc4c3)c2)ccn1 [Example 157, 1-(3-t-butyl-1-(2-oxo-1,2-dihydroquinolin-6-yl)-1H-pyrazol-5-yl)-3-(3-(2-(methylcarbamoyl)pyridin-4-yloxy)phenyl)urea]	0.031	0.04	–	–	–	–	–
CNC(=O)c1cc(Oc2ccc(NC(=O)Nc3cc(C(C)(C)C)nn3-c3ccc4nc(NC)ccc4c3)cc2)ccn1 [Example 174, 1-(3-t-butyl-1-(2-(methylamino)quinolin-6-yl)-1H-pyrazol-5-yl)-3-(4-(2-(methylcarbamoyl)pyridin-4-yloxy)phenyl)urea]	0.0018	0.245	–	–	–	–	–
CNC(=O)c1cc(Oc2ccc(NC(=O)Nc3cc(C(C)(C)C)nn3-c3ccc4nc(N)ccc4c3)cc2)ccn1 [Example 176, 1-(1-(2-aminoquinolin-6-yl)-3-t-butyl-1H-pyrazol-5-yl)-3-(4-(2-(methylcarbamoyl)pyridin-4-yloxy)phenyl)urea]	0.0028	0.044	–	–	–	–	–
COc1cccc(-n2nc(C(C)(C)C)cc2NC(=O)Nc2cccc(F)c2F)c1 [Example 236, 1-[3-t-butyl-1-(3-methoxy-phenyl)-1H-pyrazol-5-yl]-3-(2,3-difluorophenyl)urea]	–	2.05	–	3.5	–	–	0.25
